Measured values from patent US7691392B2 (Kosan Biosciences Incorporated, priority 2005, dated 2010).
Entries after “also recorded” stand apart in the source; their conditions may differ.

Assays:
[1] = test system: plasma protein; experiment: Plasma protein binding, in vitro assays using human blood
[2] = test system: metastatic melanoma; conditions: cited from earlier work
[3] = test system: solid tumors and lymphomas; conditions: patients with solid tumors and lymphomas; cited from earlier work
[4] = test system: diffuse GFP positive MM lesions; conditions: survival analysis; cited from earlier work
[5] = test system: solid tumors; conditions: adult patients with solid tumors; cited from earlier work
[6] = test system: multiple myeloma; experiment: Anti-myeloma response (Bladé criteria) in the dose escalating trial; format: in vivo, human
Method: The method of the invention was tested in an open-label, dose escalating clinical trial.
Disease response evaluations were performed following every two cycles of treatment (approximately every 6 weeks). The determination of anti-tumor efficacy in stable or responding patients was based on objective tumor assessments made according to a standardized myeloma response assessment system.
All patients with responding tumors (CR or PR) were examined to confirm the response 6 weeks after the first documentation of response.

[7] = test system: breast cancer cells; conditions: exposure to 17-AAG; cited from earlier work
[8] = test system: CDK4; conditions: at 24 hours; cited from earlier work
[9] = test system: SKBr3 breast cancer cells; conditions: exposure to 17-AAG; cited from earlier work
[10] = test system: MEXF 276 L melanoma cells; conditions: exposure to 17-AAG; cited from earlier work
[11] = test system: CD138+ myeloma cells; experiment: Abnormal mitochondrial potential (apoptosis) of CD138+ cells from bone marrow aspirates; format: in vivo, human
Text: PD assessment included the following tests: The occurrence of specific toxicities (e.g., severity, duration and reversibility) was compared to PK parameters (e.g., clearance, exposure, elimination half-life, maximal plasma concentration, and time above a target plasma concentration). These toxicities included hepatotoxicity and gastrointestinal toxicities. The laboratory correlates included a) surface expression of insulin-like growth factor receptor-1 (IGF-1R) and b), total expression of Akt, Hsp90 and Hsp70. […] Immunoblotting analyses were used to evaluate the total levels of Akt, Hsp90 and Hsp70. […] Finally, peripheral blood mononuclear cells were isolated on two occasions (the first and last infusion in Cycle 1, on Days 1 and 11) prior to and 4 hours following the infusion. Cells were examined for change in client protein expression by Western Blot. Client proteins of interest include Hsp70, RAF1, LCK and CDK4 and others as indicated.
MM cells were purified by a Fluorescence Activated Cell Sorter (FACS) from the BMA based upon CD138 expression. These CD138^+ cells collected were then tested for abnormal mitochondrial potential by measuring mitochondrial potential in plasma cells using […] (BD Biosciences, San Jose, Calif.). […] Abnormal mitochondrial potential is observed prior to apoptosis of that cell (programmed cell death).

C=CCNC1=C2C[C@@H](C)C[C@H](OC)[C@H](O)[C@@H](C)/C=C(\C)[C@H](OC(N)=O)[C@@H](OC)/C=C\C=C(/C)C(=O)NC(=CC1=O)C2=O [17-AAG, 17-Allylamino-17-demethoxygeldanamycin]
protein bound in plasma [1]: approximately 95% | complete or partial responses ([2]; once weekly schedule): No complete or partial responses were recorded | stable disease ([2]; patients treated at 320-450 mg/m^2): two showed radiologically documented long term stable disease | objective tumor responses [3]: No objective tumor responses have been observed | median overall survival [4]: significantly prolonged median overall survival | objective tumor responses [5]: No objective tumor responses were observed | disease response ([6]; 150 mg/m^2 twice weekly 2 of 3 weeks, four evaluable patients): One showed a MR; also recorded: one patient had a MR, two had stable disease and one had progressive disease | disease response ([6]; 220 mg/m^2 twice weekly 2 of 3 weeks, seven evaluable patients): four are stable disease and three are progressive disease; also recorded: four patients had stable disease and three had progressive disease | disease response ([6]; 275 mg/m^2 twice weekly 2 of 3 weeks, three evaluable patients): all three had stable disease | disease response ([6]; 340 mg/m^2 twice weekly 2 of 3 weeks, five evaluable patients): two patients had stable disease and three had progressive disease | percent of patients with stable disease ([6]; 19 evaluable patients, after three or more cycles): 58% | percent of patients with response (MR) ([6]; 19 evaluable patients, all dose levels): 5% | reduction of urine M-protein ([6]; one patient considered a PR, withdrawn for skin rash and wheezing): 90% | reduction of urine M-protein ([6]; one patient, 150 mg/m^2, after two cycles (MR), FIG. 12): 41% | reduction of serum M-spike ([6]; one patient, 275 mg/m^2, after eight cycles (stable disease), FIG. 13): 11% | effect on client proteins [7]: depletion of steroid receptors | patients with depletion of CDK4 in tumor biopsies [8]: 8 out of 9 | effect on client proteins [9]: depletion of erbB2 and destabilization of Raf-1 and mutant p53 | effect on client proteins [10]: depletion of Hsp90 and down-regulation of Raf-1 and erbB2 | percent of CD138+ cells with abnormal mitochondrial potential in BM ([11]; Day 11 of treatment (less than 5% prior to treatment), p=0.06, FIG. 9): more than 40% | increase in percent of cells with abnormal mitochondrial potential ([11]; Day 11 versus prior to treatment): more than 35% | apoptosis in BMAs ([11]; screening versus Day 11, 150 and 220 mg/m^2 doses): increased apoptosis; also recorded: increase in apoptosis
